# In US11957671B2, “Benzodioxane modulators of leukotriene A4 hydrolase (LTA4H) for prevention and treatment of aging-associated diseases” (Alkahest, Inc., priority 2021, dated 2024):
# Legend:
# [1] = test system: aged wild type (WT; C57BL/6) mice; test: Radial Arm Water Maze (RAWM); format: in vivo, mouse; conditions: 10 mg/kg PO daily, after 29 days of treatment
# Experimental: The water maze (see, e.g. Alamed J, et al., Two-day radial-arm water maze learning and memory tasks; robust resolution of amyloid-related memory deficits in transgenic mice, Nat. Protoc., 1(4):1671-79 (2006)), was filled with water at least 24 hours prior to the test to equilibrate to 25° C. The water was dyed with white latex paint to make the animals visible for tracking and to allow for the use of a hidden platform. Eight distinct visual cues were placed at the end of each of eight arms of the RAWM inserts. On day 1 animals were subjected to 5 trials each with a visible platform and a 30-minute inter-trial interval. Animals had 60 seconds to reach the platform. […] The goal arm remained constant, and a different start arm was randomly assigned for each of the 5 trials so that mouse started in every arm once except for the two arms directly across from the platform. The goal arm was switched after every two mice and balanced between all treatment groups. After each trial the mice were placed in an empty cage with blue pads and allowed to dry off under a heat lamp before being placed back into their home cage. Testing day was 48 hours after training, when animals were subjected to the same test of 5 trials each and a 30-minute inter-trial interval, but with a hidden platform. Animals were scored for the number of errors (entry into a non-goal arm) and for latency to reach the platform. All trials were recorded using ANY-maze software.
# Three independent cohorts of aged wild type (WT; C57BL/6) mice between twenty to twenty-two months of age (20-22 mo) were homogenized into two (2) groups by body weight, total distance travelled in the open field test, and average velocity in the open field test. Group 1 was administered vehicle control PO daily. Group 2 was administered 10 mg/kg of the LTA4H inhibitor Compound 1 PO daily. Both groups were dosed for either 10 days or 4 weeks daily. Behavioral assays were run during the last week of dosing and animals were sacrificed at the end of the study for histological and molecular assays.
# [2] = Pharmacokinetic Measurement of Compound 1 (LC-MS/MS); format: in vivo, mouse; conditions: C57BL/6 mice
# Excerpt: The mice are subjected to cardiac puncture and blood samples were collected using syringes pre-filled with K2EDTA or heparin. […] Hemi-brain tissue was homogenized with 3× volumes of ice-cold water, then further diluted 2× with blank mouse plasma prior to analysis. […]
# [3] = test system: LTA4H hydrolysis activity in mouse whole blood; test: Ex Vivo LTB4 Assay, mouse blood; format: cell-based; conditions: mouse whole blood incubated with compound
# Experimental: Whole blood was incubated with Compound 1 or vehicle and then a calcium ionophore (Calcimycin, A23187), or 10% DMSO. LTB4 levels in plasma were measured using ELISA.
# FIGS. 36-37 report the results of ex vivo target engagement assays with Compound 1 in human and mouse plasma. Whole blood from human or mouse was incubated with vehicle or Compound 1, following by a calcium ionophore stimulation. Plasma was generated and LTB4 levels were measured using ELISA. LTB4 is the product of LTA4H hydrolysis so this assay reports on LTA4H enzymatic activity.
# [4] = single oral gavage dose 10, 1, 0.3, 0.1 mg/kg
structure (smiles),measurement,setting,value
"O=C(O)C1CCN(Cc2ccc([C@H]3COc4ccccc4O3)cc2)CC1 [Example 1, 1-{4-[(2S)-2,3-dihydro-1,4-benzodioxin-2-yl]benzyl}piperidine-4-carboxylic acid]",average number of errors during the last trial,[1],significant decreased in number of errors
same,"latency to find the hidden platform, last trial",[1],trend towards a reduction in time to find the platform
same,number of errors during the training and testing phases,[1],"small, but significant improvement in number of errors"
same,brain penetration,[2]; single oral dose,"brain penetrant, even at low doses"
same,blood levels of Compound 1,[2]; [4],sustained and detectable in plasma and blood for up to 24 hours
same,brain levels of Compound 1,[2]; [4],sustained and detectable for up to 24 hours
same,plasma levels of Compound 1,[2]; [4],sustained and detectable in plasma and blood for up to 24 hours
same,LTB4 plasma levels after calcium ionophore stimulation,[3],reduces LTB4 plasma levels to unstimulated levels
